Laboratory results published in patent US10300065B2, “Method of treating or prevention of atherothrombotic events in patients with history of myocardial infarction” (ASTRAZENECA AB, priority 2015, dated 2019).

Tests used:
[1] = system: patients with a history of myocardial infarction; assay: PEGASUS-TIMI 54 trial, efficacy endpoints (intention-to-treat / full analysis set); assay type: in vivo, human
Text: The PEGASUS-TIMI 54 trial (also referred to as the PEGASUS trial or PEGASUS study herein) was a randomized, double-blind, placebo-controlled multinational clinical trial that enrolled over 21,000 patients at 1,161 sites in 31 countries. The protocol was approved by the relevant ethics committees at all participating sites. In the U.S., the PEGASUS trial was assigned a ClinicalTrials.gov number of NCT01225562.
Patients could be randomized regardless of their prior adenosine diphosphate (ADP) receptor blocker therapy or a lapse in therapy.
Randomization was performed using a central computerized telephone or web based system, and allocation was double-blind.
All patients enrolled in the PEGASUS trial were instructed to take open label aspirin at a dose of 75 to 150 mg daily.
A total of 1360 primary endpoint events would be required to provide approximately 90% power to detect a 20% relative risk reduction with the 90 mg twice daily dose and approximately 83% power to detect a 19% relative risk reduction with the 60 mg twice daily dose when each dose was compared individually with placebo. The primary efficacy analysis was conducted on an intention-to-treat basis, with each of the two doses individually compared to placebo, as a time to event analysis from randomization to the first occurrence of any element of the primary composite endpoint: cardiovascular death, myocardial infarction, or stroke. […] An exploratory analysis of both doses combined compared with placebo was prespecified.

platelets [2] = assay: VerifyNow P2Y12 assay (platelet reactivity, PRU), platelet function substudy; assay type: cell-based, human; settings: for VerifyNow % inhibition Post dose / VerifyNow PRU Post dose: 2 h post dose; for VerifyNow % inhibition Post dose / VerifyNow PRU Post dose / VerifyNow % inhibition Pre dose / VerifyNow PRU Pre dose: mean (SD)
Description: The pharmacokinetics (PK) and pharmacodynamics of the 60 mg bid dose had not previously been studied. […] 180 patients who had received >4 weeks of study medication had blood sampling in the morning pre-maintenance dose and again 2 h post-dose. All patients were receiving aspirin. […] Well-known VerifyNow® P2Y12 assay and light transmittance aggregometry (LTA; ADP 20 uM) were performed. Groups were compared using Kruskal-Wallis test with significance attached to P<0.01 to allow for multiple group comparisons.

platelets [3] = settings: either ticagrelor group
[4] = room temperature; crystalline powder; cited from earlier work
platelets [5] = settings: for most patients; cited from earlier work
[6] = 90 mg bid (N = 7050), at 3 years
[7] = 90 mg bid vs. placebo (N = 6988)

CCCSc1nc(N[C@@H]2C[C@H]2c2ccc(F)c(F)c2)c2nnn([C@@H]3C[C@H](OCCO)[C@@H](O)[C@H]3O)c2n1 [Ticagrelor, (1S,2S,3R,5S)-3-[7-{[(1R,2S)-2-(3,4-difluorophenyl)cyclopropyl]amino}-5-(propylthio)-3H-[1,2,3]-triazolo[4,5-d]pyrimidin-3-yl]-5-(2-hydroxyethoxy)cyclopentane-1,2-diol]
Composite of CV Death/MI/Stroke, landmark: KM % at 24 months ([1]; 90 mg bd, cumulative from day 361 to day 720): 2.4%
Composite of CV Death/MI/Stroke, landmark: KM % at 36 months ([1]; 90 mg bd, cumulative from day 361 to day 1080): 5.2%
MI: ARR (%) ([1]; 90 mg bid): 0.85%
MI: NNT ([1]; 90 mg bid): 118
Stroke: ARR (%) ([1]; 90 mg bid): 0.33%
Stroke: NNT ([1]; 90 mg bid): 303
All Stroke: 3-year Kaplan-Meier estimate ([1]; 90 mg bid (N = 7050)): (1.61) %
All Stroke: n ([1]; 90 mg bid (N = 7050)): 100
Cardiovascular Death or Myocardial infarction: 3-year Kaplan-Meier estimate ([1]; 90 mg bid (N = 7050)): (6.79) %
Cardiovascular Death or Myocardial infarction: n ([1]; 90 mg bid (N = 7050)): 424
Cardiovascular Death, Myocardial infarction, or Stroke: 3-year Kaplan-Meier estimate ([1]; 90 mg bid (N = 7050)): (7.85) %
Cardiovascular Death, Myocardial infarction, or Stroke: n ([1]; 90 mg bid (N = 7050)): 493
Cardiovascular Death: 3-year Kaplan-Meier estimate ([1]; 90 mg bid (N = 7050)): (2.94) %
Cardiovascular Death: n ([1]; 90 mg bid (N = 7050)): 182
Coronary Heart Disease Death or Myocardial infarction: 3-year Kaplan-Meier estimate ([1]; 90 mg bid (N = 7050)): (5.59) %
Coronary Heart Disease Death or Myocardial infarction: n ([1]; 90 mg bid (N = 7050)): 350
Coronary Heart Disease Death, Myocardial infarction, or Stroke: 3-year Kaplan-Meier estimate ([1]; 90 mg bid (N = 7050)): (6.99) %
Coronary Heart Disease Death, Myocardial infarction, or Stroke: n ([1]; 90 mg bid (N = 7050)): 438
Coronary Heart Disease Death: 3-year Kaplan-Meier estimate ([1]; 90 mg bid (N = 7050)): (1.53) %
Coronary Heart Disease Death: n ([1]; 90 mg bid (N = 7050)): 97
Death from any cause: 3-year Kaplan-Meier estimate ([1]; 90 mg bid (N = 7050)): (5.15) %
Death from any cause: n ([1]; 90 mg bid (N = 7050)): 326
Hospitalization for Unstable Angina: n ([1]; 90 mg bid (N = 7050)): 33
Ischemic Stroke: 3-year Kaplan-Meier estimate ([1]; 90 mg bid (N = 7050)): (1.41) %
Ischemic Stroke: n ([1]; 90 mg bid (N = 7050)): 88
Myocardial infarction: 3-year Kaplan-Meier estimate ([1]; 90 mg bid (N = 7050)): (4.40) %
Myocardial infarction: n ([1]; 90 mg bid (N = 7050)): 275
Transient Ischemic Attack: n ([1]; 90 mg bid (N = 7050)): 17
Urgent Coronary Revascularization for Unstable Angina: n ([1]; 90 mg bid (N = 7050)): 74
Hospitalization for Unstable Angina: (%) [1, 6]: (0.50) %
Transient Ischemic Attack: (%) [1, 6]: (0.27) %
Urgent Coronary Revascularization for Unstable Angina: (%) [1, 6]: (1.16) %
Cardiovascular Death, Myocardial infarction, or Stroke: 3-year Kaplan-Meier estimate ([1]; 90 mg bid (N = 7050), listed as ticagrelor): 7.85%
All Stroke: HR ([1]; 90 mg bid vs Placebo): 0.82
Cardiovascular Death or Myocardial infarction: HR ([1]; 90 mg bid vs Placebo): 0.85
Cardiovascular Death, Myocardial infarction, or Stroke: HR ([1]; 90 mg bid vs Placebo): 0.85
Cardiovascular Death: HR ([1]; 90 mg bid vs Placebo): 0.87
Coronary Heart Disease Death or Myocardial infarction: HR ([1]; 90 mg bid vs Placebo): 0.81
Coronary Heart Disease Death, Myocardial infarction, or Stroke: HR ([1]; 90 mg bid vs Placebo): 0.82
Coronary Heart Disease Death: HR ([1]; 90 mg bid vs Placebo): 0.73
Coronary stent thrombosis: RRR ([1]; 90 mg bid vs Placebo): 36%
Death from any cause: HR ([1]; 90 mg bid vs Placebo): 1.00
Hospitalization for Unstable Angina: HR ([1]; 90 mg bid vs Placebo): 0.89
Ischemic Stroke: HR ([1]; 90 mg bid vs Placebo): 0.85
Myocardial infarction: HR ([1]; 90 mg bid vs Placebo): 0.81
Transient Ischemic Attack: HR ([1]; 90 mg bid vs Placebo): 1.00
Urgent Coronary Revascularization for Unstable Angina: HR ([1]; 90 mg bid vs Placebo): 0.97
coronary heart disease death, myocardial infarction, or stroke: RRR ([1]; 90 mg bid vs Placebo): 18%
Irreversible harm (CV death, MI, stroke, ICH, or fatal bleeding): HR [1, 7]: 0.88
Irreversible harm (CV death, MI, stroke, ICH, or fatal bleeding): RRR (%) [1, 7]: 12%
Net clinical benefit (CV death, MI, stroke, or TIMI major bleeding): HR [1, 7]: 1.00
Net clinical benefit (CV death, MI, stroke, or TIMI major bleeding): RRR (%) [1, 7]: 0%
ischemic events prevented if 10,000 patients were started on treatment versus placebo ([1]; 90 mg bid, intention-to-treat data): 40
High platelet reactivity assessed by VerifyNow (PRU >208) (platelets [2]; 60 mg, post dose): absent
High platelet reactivity assessed by VerifyNow (PRU >208), patients (platelets [2]; 60 mg, pre-dose): 3.5%
VerifyNow % inhibition Post dose (platelets [2]; ticagrelor 60 mg bid): 90 (13) %
VerifyNow PRU Post dose (platelets [2]; ticagrelor 60 mg bid): 29 (39) PRU
VerifyNow % inhibition Pre dose (platelets [2]; ticagrelor 60 mg bid): 78 (20) %
VerifyNow PRU Pre dose (platelets [2]; ticagrelor 60 mg bid): 59 (63) PRU
VerifyNow % inhibition Post dose (platelets [2]; ticagrelor 90 mg bid): 92 (8) %
VerifyNow PRU Post dose (platelets [2]; ticagrelor 90 mg bid): 20 (19) PRU
VerifyNow % inhibition Pre dose (platelets [2]; ticagrelor 90 mg bid): 83 (14) %
VerifyNow PRU Pre dose (platelets [2]; ticagrelor 90 mg bid): 47 (43) PRU
VerifyNow Aspirin assay results vs placebo group (platelets [3]): no differences
aqueous solubility [4]: approximately 10 μg/mL
onset of antiplatelet effect (platelets [5]): ≤ 2 h
